Experiments:
[1] = Stability of mini-tablets (Series 1-8) compared to an amoxicillin reference sample as a function of time; format: physicochemical
Protocol: (§1) The 8 mini-tablets prepared in Example 1 and an amoxicillin reference sample were analyzed for stability. Stability data for clavulanic acid in mini-tablets compared to a clavulanic acid reference sample were also analyzed for stability.

[2] = Stability of mini-tablets containing clavulanic acid compared to a clavulanic acid reference sample as a function of time; format: physicochemical
Protocol: as §1

Stability (amoxicillin) as a function of time ([1]; 0 weeks) | Stability (amoxicillin) as a function of time ([1]; 1 week) | Stability (amoxicillin) as a function of time ([1]; 49 weeks) | Stability (clavulanic acid) as a function of time ([2]; 0 weeks) | Stability (clavulanic acid) as a function of time ([2]; 1 week) | Stability (clavulanic acid) as a function of time ([2]; 26 weeks) | Structure (SMILES)
100.0 | 100.0 | 97.8 | – | – | – | CC1(C)S[C@@H]2[C@H](NC(=O)[C@H](N)c3ccc(O)cc3)C(=O)N2[C@H]1C(=O)O [Amoxicillin reference, Amoxicillin]
– | – | – | 100% | 86.4% | 88.4% | O=C(O)[C@H]1/C(=C/CO)O[C@@H]2CC(=O)N21 [Clavulanic acid reference, Clavulanic acid]

From patent US20150238425A1, “MINI-TABLETS” (DSM SINOCHEM PHARMACEUTICALS NETHERLANDS B.V., priority 2012, published 2015)
